Experimental data published in US8791258B2, “Pro-fluorescent probes” (The Regents of the University of California, priority 2008, dated 2014).

Legend:
HeLa cells = format: cell-based; settings: 5 μM probe; 50 nM MitoTracker Deep Red, 500 nM LysoTracker Red
Protocol: 100 μM H2O2 was then added to one of the petri dishes. At 20 minutes, 50 nM MitoTracker Deep Red, 500 nM Lysotracker Red, and 1 μM Hoechst 33342 were added to both dishes. After an additional 20 minutes (40 minute stimulation total), the two coverslips were put in a single, new petri dish filled with fresh DPBS and confocal images were taken (3.2 μsec pixel time, 100% laser power for 514 line, 4.1% laser power for the 633 line, 26% laser power for the 543 line, scanned using 12-bit multi-track scan mode using a constant receiver gain). Shown above are signals from MitoPY1 (a), MitoTracker Deep Red (b), LysoTracker Red (c), an overlay of MitoTracker Deep Red and MitoPY1 (d), Hoechst (e), and a brightfield image (f) of cells not treated with H2O2, as well as signals from MitoPY1 (g), MitoTracker Deep Red (h), LysoTracker Red (i), an overlay of MitoTracker Deep Red and MitoPY1 (j), Hoechst (k), and a brightfield image (l) of cells treated with H2O2. A 20 μm scale bar shown for all images.
HeLa cells incubated with 5 μM MitoPY1 for 60 min at 37° C. and imaged with MitoPY1 (a), MitoTracker Red and Hoechst (overlay, b), and MitoPY1 with MitoTracker Red (overlay, c). HeLa cells incubated with 5 μM MitoPY1 for 60 min at 37° C. with 100 μM H2O2 added for the final 40 min and imaged with MitoPY1 (d), MitoTracker Red and Hoechst (overlay, e), MitoPY1 and MitoTracker Red (overlay, f), and brightfield (g) with 20 μm scale bar. HeLa cells incubated with 5 μM MitoPY1 for 60 min at 37° C. and imaged with MitoPY1 (h), MitoTracker Red and Hoechst (overlay, i), and MitoPY1 with MitoTracker Red (overlay, j). HeLa cells incubated for 24 h with 1 mM paraquat, then washed and incubated with 5 μM MitoPY1 for 60 min at 37° C. and imaged with MitoPY1 (k), MitoTracker Red and Hoechst (overlay, l), MitoPY1 and MitoTracker Red (overlay, m), and brightfield (n) with 20 μm scale bar.
HEK293 cells were cultured in DMEM (Invitrogen) supplemented with 10% fetal bovine serum (FBS, Hyclone) and glutamine (2 mM). CHO.K1 cells were cultured in DMEM with F-12 supplements, glutamax (Invitrogen), and 5% FBS. Cos-7 cells were cultured in DMEM with high glucose, glutamax, 10% FBS, and non-essential amino acids (Invitrogen). HeLa cells were cultured in DMEM with high glucose, glutamax, and 10% FBS. Two days before imaging, cells were passaged and plated on 18-mm glass coverslips. For all experiments, solutions of dyes (from 5 mM stocks in DMSO) were made in DBPS with calcium chloride and magnesium chloride (Sigma). H2O2 was added by bath application to the medium from a 100 mM aqueous stock. For paraquat treatment, HeLa cells were cultured as described above. One day prior to imaging, 1 mM paraquat was added to cells from a 0.5 M stock solution in water. An equal amount of water was added to control cells at the same time. Cells were then incubated at 37° C., 5% CO2. After 24 hours, the media was exchanged for DPBS with 5 μM dye and incubated for 1 hour.
Confocal fluorescence imaging studies were performed with a Zeiss LSM510 NLO Axiovert 200 laser scanning microscope and a 63× Achroplan IR water-immersion objective lens. Excitation of PY-loaded cells at 510 nm was carried out with an Ar laser and emission was collected using a META detector between 527-580 nm. MitoTracker Deep Red was excited with a 633-nm line and emission was collected between 666-698 nm. LysoTracker Red was excited with a 543-nm line and emission was collected between 580-644 nm. Excitation of Hoechst 33342 was carried out using a MaiTai two-photon laser at 780-nm pulses (mode-locked Ti:sapphire laser, Tsunami Spectra Physics) and emission was collected between 452-537 nm. Image analysis was performed in Adobe Photoshop.
MitoPY1 was tested for its ability to both target the mitochondria and respond to H2O2 in living biological systems. […] Again, co-staining with MitoTracker confirms that the dye is retained in the mitochondria and detects localized rises in H2O2 concentrations.

[1] = Absorption and emission properties, fluorescence quantum yield; format: physicochemical; settings: 20 mM HEPES, pH 7; for fluorescence quantum yield Φ: by reference to fluorescein; for extinction coefficient ε at 510 nm: λabs 510 nm
Protocol: (§1) Millipore water was used to prepare all aqueous solutions. All spectroscopic measurements were performed in 20 mM HEPES buffer, pH 7. Absorption spectra were recorded using a Varian Cary 50 spectrophotometer (Walnut Creek, Calif.). Fluorescence spectra were recorded using a Photon Technology International Quanta Master 4 L-format scanning spectrofluorometer (Lawrenceville, N.J.) equipped with an LPS-220B 75-W xenon lamp and power supply, A-1010B lamp housing with integrated igniter, switchable 814 photon-counting/analog photomultiplier detection unit, and MD5020 motor driver. Samples for absorption and fluorescence measurements were contained in 1-cm×1-cm quartz cuvettes (1.4- or 3.5-mL volume, Starna, Atascadero, Calif.).
as §1, with “recorded on” for “recorded using”, “Creek, Calif.) and fluorescence” for “Creek, Calif.). Fluorescence”, “and emission” for “and fluorescence”, “cuvettes (1.5-mL” for “cuvettes (1.4- or 3.5-mL”, “Calif.). Fluorescence quantum yields were determined by reference to fluorescein in 0.1M NaOH (Φ=0.95).” for “Calif.).”

[2] = cited from earlier work
HEK cells = assay: Confocal and two-photon fluorescence imaging of H2O2 in live HEK cells
Protocol: (a) Fluorescence image of HEK cells incubated with 5 μM PF1 for 5 min at 25° C. (b) Fluorescence image of PF1-stained HEK cells treated with 100 μM H2O2 for 11 min at 25° C. Excitation was provided at 488 nm, and emission was collected in a window from 505 to 580 nm. Scale bar=27 μm.
(a) Fluorescence image of HEK cells incubated with 10 μM PR1 for 10 min at 25° C. (b) Fluorescence image of PR1-stained HEK cells treated with 100 μM H2O2 for 30 min at 25° C. Excitation was provided at 543 nm, and emission was collected in a window from 548 to 644 nm. Scale bar=18 μm.
(a) Fluorescence image of HEK cells incubated with 10 μM PX1 for 2-3 min at 25° C. (b) Fluorescence image of PX1-stained HEK cells treated with 100 μM H2O2 for 30 min at 25° C. Two-photon excitation was provided at 704 nm, and emission was collected in a window from 420 to 500 nm. Scale bar=18 μm.
HEK 293T cells were cultured in Dulbecco's Modified Eagle Medium (DMEM, Invitrogen, Carlsbad, Calif.) supplemented with 10% Fetal Bovine Serum (FBS, Invitrogen), glutamine (2 mM), and penicillin/streptomycin (50 μg/ml, Invitrogen). One day before imaging, cells were passed and plated on 18-mm glass coverslips coated with poly-L-lysine (50 μg/ml, Sigma, St. Louis, Mo.). Immediately before the experiments, cells were washed with PBS buffer, incubated with the probe in PBS, and imaged.
Confocal fluorescence imaging was performed with a Zeiss LSM510 META laser scanning microscope containing an Axioplan 2 MOT upright microscope and a 40× water-immersion objective lens. Excitation of PF1-loaded cells at 488 nm was carried out with an argon ion laser, and emission was Collected in a window from 505 nm to 580 nm using a META detection system. Excitation of PR1-loaded cells at 543 nm was carried out with a HeNe laser, and emission was collected in a window from 548 nm to 644 nm using a META detector. PF1 or PR1 were incubated with live cell samples for 5 to 10 min. Addition of H2O2 (10 to 100 μM) to cell samples was performed directly on the microscope stage by bath application to the media.
Two-photon fluorescence imaging of PX1 was carried out using an inverted Zeiss LSM510 Axiovert 200M microscope with a NeoFLUAR 40×/1.3 NA oil-immersion objective lens. Samples were excited by 704-nm pulses from a mode-locked Ti:Sapphire laser (Tsunami, SpectraPhysics, 120-150 fs pulse width, 80 MHz repetition rate). The emission light was filtered with a 80-nm wide bandpass filter centered at 460 nm (460BP40, Chroma) and detected with the non-descanned detector (NDD) of the LSM510.

[3] = Fluorescence response to various ROS (H2O2 selectivity); settings: 20 mM HEPES, pH 7, 25° C.
Protocol: FIG. 7 is the fluorescence response of 5 μM PF1 to various ROS (10 mM O2^−, 100 μM for all other ROS). .OH and .Ot-Bu were generated by reaction of Fe^2+ with H2O2 or tert-butyl hydroperoxide (TBHP), respectively. NO was delivered using S-nitrosocysteine (SNOC). Spectra were acquired in 20 mM HEPES, pH 7, and all data were obtained after incubation with the appropriate ROS at 25° C. for 1 h. Collected emission was integrated between 460 and 700 nm (λexc=450 nm).
FIG. 8 is the fluorescence response of 5 μM PR1 to various ROS (10 mM O2^−, 100 μM for all other ROS). .OH and .O^tBu were generated by reaction of Fe^2+ with H2O2 or tert-butyl hydroperoxide (TBHP), respectively. NO was delivered using S-nitrosocysteine (SNOC). Spectra were acquired in 20 mM HEPES, pH 7, and all data were obtained after incubation with the appropriate ROS at 25° C. for 30 min. Collected emission was integrated between 570 and 800 nm (λexc=560 nm).
FIG. 9 is the fluorescence response of 10 μM PX1 to various ROS (10 mM O2^−, 100 μM for all other ROS). .OH and .Ot-Bu were generated by reaction of Fe^2+ with H2O2 or tert-butyl hydroperoxide (TBHP), respectively. NO was delivered using S-nitrosocysteine (SNOC). Spectra were acquired in 20 mM HEPES, pH 7, and all data were obtained after incubation with the appropriate ROS at 25° C. for 1 h. Collected emission was integrated between 370 and 600 nm (λexc=350 nm).
as §1
FIG. 7, FIG. 8 and FIG. 9 compare the relative reactivities of boronate-based PF1, PR1, and PX1, respectively, toward various ROS.

CC(=O)N1CCN(c2ccc3c(c2)Oc2cc(B4OC(C)(C)C(C)(C)O4)ccc2C32OC(=O)c3ccccc32)CC1 (centres unmarked) [ContPY1]
subcellular localization (co-staining with MitoTracker Deep Red, LysoTracker Red) (HeLa cells): only MitoPY1 targets the mitochondria | fluorescence quantum yield Φ [1]: 0.018 | extinction coefficient ε at 515 nm of the corresponding rhodol formed with H2O2 ([1]; after reaction with H2O2, 515 nm): 38,200 M^−1 cm^−1 | fluorescence quantum yield Φ of the corresponding rhodol formed with H2O2 ([1]; after reaction with H2O2, λem 543 nm): 0.388 | extinction coefficient ε at 404 nm ([1]; λabs 404 nm): 4,100 M^−1 cm^−1 | extinction coefficient ε at 490 nm ([1]; λabs 490 nm): 15,600 M^−1 cm^−1 | extinction coefficient ε at 510 nm [1]: 16,130 M^−1 cm^−1

O=C(O)c1ccccc1C1c2cc(Cl)c(O)cc2Oc2cc(O)c(Cl)cc21 [DCFH, 2′,7′-dichlorodihydrofluorescein]
fluorescence increase by reaction with .OH or peroxynitrite (ONOO−) ([2]; .OH or ONOO−): ca. 7000 fold | fluorescence increase upon addition of H2O2, previously reported probes ([2]; H2O2): 190 fold | fluorescence increase with NO ([2]; NO): 150 fold | fluorescence increase with O2− ([2]; O2−): 67 fold | fluorescence increase upon light-induced autoxidation ([2]; light-induced autoxidation): 2000 fold

O=C1OC2(c3ccc(O)cc3Oc3cc(N4CCN(CCCC[P+](c5ccccc5)(c5ccccc5)c5ccccc5)CC4)ccc32)c2ccccc21 (centres unmarked) [MitoPY1ox]
subcellular localization (co-staining with MitoTracker Deep Red, LysoTracker Red) (HeLa cells): only MitoPY1 targets the mitochondria | fluorescence quantum yield Φ [1]: 0.405 | extinction coefficient ε at 510 nm [1]: 22,300 M^−1 cm^−1

CC1(C)OB(c2ccc3c(c2)Oc2cc(B4OC(C)(C)C(C)(C)O4)ccc2N3)OC1(C)C [PR1, 3,7-Bis(pinacolatoboron)phenoxazine]
intracellular background fluorescence of probe-loaded cells before H2O2 (HEK cells; 5-10 μM probe, 2-10 min at 25° C.): virtually no background fluorescence | cell viability during imaging (HEK cells; after probe incubation and H2O2 treatment, brightfield): cells are viable throughout the experiments | membrane permeability / cell entry (HEK cells; live HEK cells): membrane-permeable | intracellular fluorescence after addition of H2O2 (HEK cells; probe-loaded cells, 10-100 μM H2O2): Striking increases in intracellular red fluorescence | higher response for H2O2 over .OH ([3]; 100 μM ROS, .OH from Fe2+ with H2O2): > 200 fold | higher response for H2O2 over .OtBu ([3]; 100 μM ROS, .OtBu from Fe2+ with TBHP): > 200 fold | higher response for H2O2 over NO ([3]; 100 μM ROS, NO delivered using SNOC): > 200 fold | higher response for H2O2 over O2− ([3]; 10 mM O2−, 100 μM H2O2): > 1000 fold
